# Experimental data from patent US20040115160A1, “Quaternary ammonium esters for disinfection and preservation” (priority 2002, published 2004).
# Where two headings read alike, the source gives them in different places.
# Experiments:
# Assay in all cases: Stand-alone biocidal test without organic soil
# Format in all cases: cell-based
# [1] = system: Candida albicans (ATCC 10231); conditions: Candida albicans, read-out: Stand-alone biocidal result (microbial log reduction) C. albicans
# Procedure: (§1) A test was conducted to study the microbiocidal efficacy of a solution containing a quaternary ammonium ester of the present invention employing borate buffered saline (BBS). The antimicrobial efficacy of each of the various compositions for the chemical disinfection of contact lenses was evaluated. Microbial challenge inoculums were prepared using Pseudomonas aeruginosa (ATCC 9027), Staphylococcus aureus (ATCC 6538), Serratia marcescens (ATCC 13880), Candida albicans (ATCC 10231) and Fusarium solani (ATCC 36031). The test organisms were cultured on appropriate agar and the cultures were harvested using sterile DPBST (Dulbecco's Phosphate Buffered Saline plus 0.05 percent weight/volume polysorbate 80) or a suitable diluent and transferred to a suitable vessel. Spore suspensions were filtered through sterile glass wool to remove hyphal fragments. Serratia marcescens, as appropriate, was filtered through a 1.2 mμ filter to clarify the suspension. After harvesting, the suspension was centrifuged at no more than 5000×g for a maximum of 30 minutes at 20 to 25° C. The supernatant was poured off and resuspended in DPBST or other suitable diluent. The suspension was centrifuged a second time, and resuspended in DPBST or other suitable diluent. All challenge bacterial and fungal cell suspensions were adjusted with DPBST or other suitable diluent to 1×10^7 to 1×10^8 cfu/ml. The appropriate cell concentration may be estimated by measuring the turbidity of the suspension, for example, using a spectrophotometer at a preselected wavelength, for example 490 nm. One tube was prepared containing a minimum of 10 ml of test solution per challenge organism. Each tube of the solution to be tested was inoculated with a suspension of the test organism sufficient to provide a final count of 1×10^5 to 1×10^6 cfu/ml, the volume of the inoculum not exceeding 1 percent of the sample volume. Dispersion of the inoculum was ensured by vortexing the sample for at least 15 seconds. The inoculated product was stored at 10 to 25° C. Aliquots in the amount of 1.0 ml were taken of the inoculated product for determination of viable counts after certain time periods of disinfection. The time points for the bacteria were, for example, 1, 2, 3 and 4 hours when the proposed regimen soaking time was four hours. Yeast and mold were tested at an additional timepoint of 16 hours (4 times the regimen time). The suspension was mixed well by vortexing vigorously for at least 5 seconds. The 1.0 ml aliquots removed at the specified time intervals were subjected to a suitable series of decimal dilutions in validated neutralizing media. The suspensions were mixed vigorously and incubated for a suitable period of time to allow for neutralization of the microbial agent at room temperature. The viable count of organisms was determined in appropriate dilutions by preparation of triplicate plates of trypticase soy (TSA) agar for bacteria and Sabouraud dextrose agar (SDA) for mold and yeast. The bacterial recovery plates were incubated at 30 to 35° C. for two to four days. The yeast was incubated at 20 to 30° C. for two to four days and mold recovery plates were incubated at 20 to 25° C. for three to seven days. The average number of colony forming units was determined on countable plates. Countable plates refer to 30 to 300 cfu/plates for bacteria and yeast, and 8 to 80 cfu/plate for mold except when colonies are observed only for the 10^0 or 10^−1 dilution plates. The microbial reduction was then calculated at the specified time points. […] Following inoculation in a validated neutralizing broth and incubation for an appropriate period of time, the inoculum control must be between 1.0×10^5 to 1.0×10^6 cfu/ml. […]
# [2] = system: Fusarium solani (ATCC 36031); conditions: Fusarium solani, read-out: Stand-alone biocidal result (microbial log reduction) F. solani
# Procedure: as §1
# [3] = system: Pseudomonas aeruginosa (ATCC 9027); conditions: 25 ppm in BBS, without organic soil
# Procedure: as §1
# [4] = system: Serratia marcescens (ATCC 13880); conditions: 25 ppm in BBS, without organic soil
# Procedure: as §1
# [5] = system: Staphylococcus aureus (ATCC 6538); conditions: 25 ppm in BBS, without organic soil
# Procedure: as §1
smiles,measurement,setting,value
"CCCCCCCCCCCCCC(=O)OCCC[N+](C)(C)Cc1ccccc1 [Compound 1, N-myristoyloxypropyl-N-benzyl-N,N-dimethylammonium chloride]",log reduction at 25 ppm,"[1]; ATCC10231, 1 h",3.6
same,log reduction at 25 ppm,"[1]; ATCC10231, 4 h",> 4.8
same,log reduction at 25 ppm,"[2]; ATCC36031, 1 h",4
same,log reduction at 25 ppm,"[2]; ATCC36031, 4 h",4.2
same,Stand-alone biocidal result (microbial log reduction) P. aeruginosa,[3]; 1 hr.,>4.7
same,Stand-alone biocidal result (microbial log reduction) P. aeruginosa,[3]; 4 hr.,>4.7
same,Stand-alone biocidal result (microbial log reduction) S. marcescens,[4]; 1 hr.,4.8
same,Stand-alone biocidal result (microbial log reduction) S. marcescens,[4]; 4 hr.,>4.8
same,Stand-alone biocidal result (microbial log reduction) S. aureus,[5]; 1 hr.,4.6
same,Stand-alone biocidal result (microbial log reduction) S. aureus,[5]; 4 hr.,>4.8
